The nature of series [1]: Drug interaction studies with oral rilpivirine.
Series [2] can be described thus: Established and other potentially significant drug interactions (Table 5). Conditions: trial-based or predicted.
Series [3] in a line: Drug interaction studies with oral cabotegravir. Conditions: cabotegravir 30 mg once daily; No Effect = 1.00.
Another series in a line: Solubility in water. The format is physicochemical. An excerpt: The cabotegravir tablet contains cabotegravir, as cabotegravir sodium. […] The tablet film-coating contains hypromellose, polyethylene glycol, and titanium dioxide.
Where [4] appears, read: rilpivirine 75 mg once daily, No Effect = 1.00.
The mark [5] stands for this setting: rilpivirine 150 mg once daily, No Effect = 1.00.
[6] abbreviates: rilpivirine 25 mg once daily, No Effect = 1.00.

Counter-ions that a name gives are not always drawn.

As for `CCCc1nn(C)c2c(=O)[nH]c(-c3cc(S(=O)(=O)N4CCNCC4)ccc3OCC)nc12` [N-desmethyl-sildenafil], in series [1] (setting [4]), the “Geometric Mean Ratio of coadministered drug AUC with/without EDURANT” value was found to be 0.92 and the “Geometric Mean Ratio of coadministered drug Cmax with/without EDURANT” value came out at 0.90.

As to Lopinavir/ritonavir, in series [1] (setting [5]), the “Geometric Mean Ratio of coadministered drug AUC with/without EDURANT” value is 0.99, the “Geometric Mean Ratio of coadministered drug Cmax with/without EDURANT” value amounted to 0.96, the “Geometric Mean Ratio of coadministered drug Cmin with/without EDURANT” value is on record as 0.89 and the “Geometric Mean Ratio of rilpivirine AUC with/without coadministered drug” value is reported as 0.99. Besides, in series [1] (setting [5]), the “Geometric Mean Ratio of rilpivirine Cmax with/without coadministered drug” value worked out at 0.96 and the “Geometric Mean Ratio of rilpivirine Cmin with/without coadministered drug” value turned out to be 0.89.

Consider `CCC(=O)C(CC(C)N(C)C)(c1ccccc1)c1ccccc1` (stereo not drawn) [Methadone], for which the “rilpivirine Cmin with/without coadministered drug” value in series [1] (rilpivirine 25 mg once daily, comparison based on historic controls) is “↔^b”. For the same compound, the “Effect on Concentration” value in series [2] (with narcotic analgesic methadone) was “↓Methadone”.

As to `CN(C)C(=N)N=C(N)N` [Metformin], in series [1] (setting [6]), the “Geometric Mean Ratio of coadministered drug AUC with/without EDURANT” value is 0.97 and the “Geometric Mean Ratio of coadministered drug Cmax with/without EDURANT” value turned out to be 1.02.

Regarding `CO[C@H]1/C=C/O[C@@]2(C)Oc3c(C)c(O)c4c(O)c(c(/C=N/N5CCN(C)CC5)c(O)c4c3C2=O)NC(=O)/C(C)=C\C=C\[C@H](C)[C@H](O)[C@@H](C)[C@@H](O)[C@@H](C)[C@H](OC(C)=O)[C@@H]1C` [Rifampin], in series [1] (setting [5]), the “Geometric Mean Ratio of coadministered drug AUC with/without EDURANT” value is 0.99 and the “Geometric Mean Ratio of coadministered drug Cmax with/without EDURANT” value was found to be 1.02.

Consider `C#C[C@]1(O)CC[C@H]2[C@@H]3CCC4=CC(=O)CC[C@@H]4[C@H]3CC[C@@]21CC` [Levonorgestrel], for which, in series [3], the “Geometric Mean Ratio of AUC of coadministered drug with/without cabotegravir” value is reported as 1.12, the “Geometric Mean Ratio of Cmax of coadministered drug with/without cabotegravir” value was determined as 1.05 and the “Geometric Mean Ratio of Cτ or C24 of coadministered drug with/without cabotegravir” value turned out to be 1.07.

For `C#C[C@]1(O)CC[C@H]2[C@@H]3CCc4cc(O)ccc4[C@H]3CC[C@@]21C` [Ethinyl estradiol], in series [1] (setting [6]), the “Geometric Mean Ratio of coadministered drug AUC with/without EDURANT” value came out at 1.14, the “Geometric Mean Ratio of coadministered drug Cmax with/without EDURANT” value came out at 1.17 and the “Geometric Mean Ratio of coadministered drug Cmin with/without EDURANT” value is recorded as 1.09. Further, in series [3], the “Geometric Mean Ratio of AUC of coadministered drug with/without cabotegravir” value stood at 1.02, the “Geometric Mean Ratio of Cmax of coadministered drug with/without cabotegravir” value amounted to 0.92 and the “Geometric Mean Ratio of Cτ or C24 of coadministered drug with/without cabotegravir” value is reported as 1.00.

As to `CC(=O)Nc1ccc(O)cc1` [Acetaminophen], in series [1] (setting [5]), the “Geometric Mean Ratio of coadministered drug AUC with/without EDURANT” value was found to be 0.91 and the “Geometric Mean Ratio of coadministered drug Cmax with/without EDURANT” value came out at 0.97.

For the compound `C[C@H]1O[C@@H](O[C@H]2[C@@H](O)C[C@H](O[C@H]3[C@@H](O)C[C@H](O[C@H]4CC[C@@]5(C)[C@H](CC[C@@H]6[C@@H]5C[C@@H](O)[C@]5(C)[C@@H](C7=CC(=O)OC7)CC[C@]65O)C4)O[C@@H]3C)O[C@@H]2C)C[C@H](O)[C@@H]1O` [Digoxin], in series [1] (setting [6]), the “Geometric Mean Ratio of coadministered drug AUC with/without EDURANT” value turned out to be 0.98 and the “Geometric Mean Ratio of coadministered drug Cmax with/without EDURANT” value is on record as 1.06.

As to `CCCc1nn(C)c2c(=O)[nH]c(-c3cc(S(=O)(=O)N4CCN(C)CC4)ccc3OCC)nc12` [Sildenafil], in series [1] (setting [4]), the “Geometric Mean Ratio of coadministered drug AUC with/without EDURANT” value was 0.97 and the “Geometric Mean Ratio of coadministered drug Cmax with/without EDURANT” value is on record as 0.93.

As for `CC(C)OC(=O)OCOP(=O)(CO[C@H](C)Cn1cnc2c(N)ncnc21)OCOC(=O)OC(C)C` [Tenofovir disoproxil fumarate], in series [1] (setting [5]), the “Geometric Mean Ratio of coadministered drug AUC with/without EDURANT” value is 1.23, the “Geometric Mean Ratio of coadministered drug Cmax with/without EDURANT” value was 1.19 and the “Geometric Mean Ratio of coadministered drug Cmin with/without EDURANT” value is 1.24.

Regarding `O=c1[nH]cnc2c1ncn2[C@H]1CC[C@@H](CO)O1` [Didanosine], in series [1] (setting [5]), the “Geometric Mean Ratio of coadministered drug AUC with/without EDURANT” value was found to be 1.12 and the “Geometric Mean Ratio of coadministered drug Cmax with/without EDURANT” value came out at 0.96.

Take `Cc1nnc(C(=O)NC(C)(C)c2nc(C(=O)NCc3ccc(F)cc3)c(O)c(=O)n2C)o1` [Raltegravir]: in series [1] (setting [6]), the “Geometric Mean Ratio of coadministered drug AUC with/without EDURANT” value was 1.09, the “Geometric Mean Ratio of coadministered drug Cmax with/without EDURANT” value is listed as 1.10 and the “Geometric Mean Ratio of coadministered drug Cmin with/without EDURANT” value is 1.27.

For the compound `CC(C)c1c(C(=O)Nc2ccc(O)cc2)c(-c2ccccc2)c(-c2ccc(F)cc2)n1CC[C@@H](O)C[C@@H](O)CC(=O)O` [4-hydroxy-atorvastatin], in series [1] (setting [5]), the “Geometric Mean Ratio of coadministered drug AUC with/without EDURANT” value is 1.23 and the “Geometric Mean Ratio of coadministered drug Cmax with/without EDURANT” value worked out at 1.28.

For the compound `CO[C@H]1/C=C/O[C@@]2(C)Oc3c(C)c(O)c4c(c3C2=O)C2=NC3(CCN(CC(C)C)CC3)NC2=C(NC(=O)/C(C)=C\C=C\[C@H](C)[C@H](O)[C@@H](C)[C@@H](O)[C@@H](C)[C@H](OC(C)=O)[C@@H]1C)C4=O` [Rifabutin], the “Effect on Concentration” value in series [2] (with antimycobacterial rifabutin) is “↔Rifabutin”.

On to `C[C@H]1CO[C@@H]2Cn3cc(C(=O)NCc4ccc(F)cc4F)c(=O)c(O)c3C(=O)N12` [Cabotegravir sodium], for which the solubility in water entry in the series “Solubility in water” is “slightly soluble”.

Take `CC(=O)N1CCN(c2ccc(OCC3COC(Cn4ccnc4)(c4ccc(Cl)cc4Cl)O3)cc2)CC1` (stereo not drawn) [Ketoconazole]: in series [1] (setting [5]), the “Geometric Mean Ratio of coadministered drug AUC with/without EDURANT” value amounted to 0.76, the “Geometric Mean Ratio of coadministered drug Cmax with/without EDURANT” value was 0.85 and the “Geometric Mean Ratio of coadministered drug Cmin with/without EDURANT” value is 0.34.

With `C#C[C@]1(O)CC[C@H]2[C@@H]3CCC4=CC(=O)CC[C@@H]4[C@H]3CC[C@@]21C` [Norethindrone], in series [1] (setting [6]), the “Geometric Mean Ratio of coadministered drug AUC with/without EDURANT” value was 0.89, the “Geometric Mean Ratio of coadministered drug Cmax with/without EDURANT” value amounted to 0.94 and the “Geometric Mean Ratio of coadministered drug Cmin with/without EDURANT” value came to 0.99.

In the case of `Cc1ncc2n1-c1ccc(Cl)cc1C(c1ccccc1F)=NC2` [Midazolam], in series [3], the “Geometric Mean Ratio of AUC of coadministered drug with/without cabotegravir” value is on record as 1.10 and the “Geometric Mean Ratio of Cmax of coadministered drug with/without cabotegravir” value is listed as 1.09.

With `CO[C@H]1/C=C/O[C@@]2(C)Oc3c(C)c(O)c4c(O)c(c(/C=N/N5CCN(C)CC5)c(O)c4c3C2=O)NC(=O)/C(C)=C\C=C\[C@H](C)[C@H](O)[C@@H](C)[C@@H](O)[C@@H](C)[C@H](O)[C@@H]1C` [25-desacetylrifampin], in series [1] (setting [5]), the “Geometric Mean Ratio of coadministered drug AUC with/without EDURANT” value was 0.91 and the “Geometric Mean Ratio of coadministered drug Cmax with/without EDURANT” value is 1.00.

Source of the values: patent US12636285B2 (ViiV Healthcare Company, priority 2019, dated 2026).
